In patent publication US11725036B2, “Modified lipidated relaxin B chain peptides and their therapeutic use” (Sanofi, priority 2018, dated 2023):
Starred links: 1 amine or outer side, 2 acyl side, 3 side chain; linkers in the order of their positions; H or OH if unused. Non-standard residues stand in square brackets, D forms with d. Residues, ends and D or L forms follow the SMILES beside them. Groups on a side chain read outwards from the residue. *: point of attachment. X3 = CCCCCCCCCCCCCCCCCC(=O)N[C@@H](CCC(=O)N[C@@H](CCC(=O)N[C@@H](CCC(=O)NCCCOCCOCCOCCCNC(=O)CCC(=O)NCCCOCCOCCOCCCNC(=O)CCC(=O)NCCCOCCOCCOCCCN*)C(=O)O)C(=O)O)C(=O)O; X1 = CCCCCCCCCCCCCCCC(=O)N[C@@H](CCC(=O)N[C@@H](CCC(=O)N[C@@H](CCC(=O)NCCCOCCOCCOCCCNC(=O)CCC(=O)NCCCOCCOCCOCCCNC(=O)CCC(=O)NCCCOCCOCCOCCCN*)C(=O)O)C(=O)O)C(=O)O; X8 = CCCCCCCCCCCCCCCC(=O)N[C@@H](CCC(=O)N[C@@H](CCC(=O)N[C@@H](CCC(=O)N[C@@H](CCC(=O)NCCCOCCOCCOCCCNC(=O)CCC(=O)NCCCOCCOCCOCCCN*)C(=O)O)C(=O)O)C(=O)O)C(=O)O; γGlu = O=C(O)[C@H](CCC(=O)[*:2])N[*:1]; Palmitoyl = CCCCCCCCCCCCCCCC(=O)*; αMeF = C[C@](N)(Cc1ccccc1)C(=O)O; Cit = NC(=O)NCCC[C@H](N)C(=O)O; Suc = O=C(CCC(=O)[*:2])[*:1]; αMeK = C[C@](N)(CCCCN)C(=O)O; hLys = NCCCCC[C@H](N)C(=O)O; AEEA = NCCOCCOCC(=O)O; Aib = CC(C)(N)C(=O)O

Target: T1, RXFP1 (Homo sapiens, UniProt Q9HBX9)
T1 construct: OVCAR5 cells expressing endogenous RXFP1; endogenous in cells; host or cells: OVCAR5
T1 sequence (Q9HBX9 1-757): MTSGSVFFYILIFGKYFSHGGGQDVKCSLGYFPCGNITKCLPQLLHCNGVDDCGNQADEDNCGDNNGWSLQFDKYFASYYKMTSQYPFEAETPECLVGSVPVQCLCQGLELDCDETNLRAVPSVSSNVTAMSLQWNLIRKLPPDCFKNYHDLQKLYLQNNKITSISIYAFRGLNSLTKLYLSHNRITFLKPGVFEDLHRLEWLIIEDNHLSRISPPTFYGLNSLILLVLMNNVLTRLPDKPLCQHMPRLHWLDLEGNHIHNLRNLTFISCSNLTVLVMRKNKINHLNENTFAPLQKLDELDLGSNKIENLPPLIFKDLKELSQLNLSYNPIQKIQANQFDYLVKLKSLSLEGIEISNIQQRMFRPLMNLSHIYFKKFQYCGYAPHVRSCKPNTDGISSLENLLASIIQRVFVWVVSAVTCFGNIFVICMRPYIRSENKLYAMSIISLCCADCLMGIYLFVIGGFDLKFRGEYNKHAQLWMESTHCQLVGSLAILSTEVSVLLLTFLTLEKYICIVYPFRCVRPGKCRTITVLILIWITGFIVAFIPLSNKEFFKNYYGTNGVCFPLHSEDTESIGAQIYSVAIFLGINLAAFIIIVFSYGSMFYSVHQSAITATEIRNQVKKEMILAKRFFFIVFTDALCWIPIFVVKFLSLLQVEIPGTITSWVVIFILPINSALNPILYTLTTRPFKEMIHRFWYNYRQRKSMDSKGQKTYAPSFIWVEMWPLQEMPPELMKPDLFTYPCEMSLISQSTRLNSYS
Test: OVCAR5 cAMP assay (HTRF)
Type: cell-based
Settings: for EC50: OVCAR 5 cells expressing endogenous RXFP1, cAMP readout; for Emax: OVCAR 5 cells, maximal cAMP relative to H2-relaxin
Procedure, shortened: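 Peptide agonism measured as intracellular cAMP (HTRF) after 30 min at 37° C in serum-free medium, following 40 min 1 mM IBMX preincubation of OVCAR5 cells. Nonlinear regression gave EC50; Emax % = 100 × compound maximal cAMP / H2-relaxin maximal cAMP.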

| EC50 [nM] | Emax [%] | SMILES |
| --- | --- | --- |
| 0.62 | 88 | CCCCCCCCCCCCCCCC(=O)N[C@@H](CCC(=O)N[C@@H](CCC(=O)N[C@@H](CCC(=O)NCCCOCCOCCOCCCNC(=O)CCC(=O)NCCCOCCOCCOCCCNC(=O)CCC(=O)NCCCOCCOCCOCCCNC(=O)CCC(=O)NCCCC[C@H](NC(=O)CNC(=O)[C@H](CCC(=O)O)NC(=O)C(C)(C)NC(=O)C(C)(C)NC(=O)[C@@H](NC(=O)[C@H](CCCCNC(C)=O)NC(=O)[C@H](C)NC(=O)[C@H](CCCNC(=N)N)NC(=O)[C@@H](NC(=O)[C@H](CCCCCN)NC(=O)[C@H](CCC(=O)O)NC(=O)[C@H](CCCNC(=N)N)NC(=O)CNC(=O)[C@H](CCC(=O)O)NC(=O)[C@H](CC(C)C)NC(C)=O)C(C)C)[C@@H](C)CC)C(=O)N[C@@H](CO)C(=O)N[C@H](C(=O)N[C@@H](Cc1ccccc1)C(=O)N[C@@H](CO)C(=O)N[C@@](C)(CCCCN)C(=O)N[C@@H](CCCNC(=N)N)C(=O)N[C@@H](C)C(=O)N[C@@H](CCCCNC(C)=O)C(N)=O)[C@@H](C)O)C(=O)O)C(=O)O)C(=O)O [compound 28] (Ac-LEGRE[hLys]VRAK(Ac)I[Aib][Aib]EGK([Suc-X1])STFS[αMeK]RAK(Ac)-NH2) |
| 0.1 | 97 | CCCCCCCCCCCCCCCC(=O)N[C@@H](CCC(=O)N[C@@H](CCC(=O)N[C@@H](CCC(=O)NCCCOCCOCCOCCCNC(=O)CCC(=O)NCCCOCCOCCOCCCNC(=O)CCC(=O)NCCCOCCOCCOCCCNC(=O)CCC(=O)NCCCC[C@H](NC(=O)CNC(=O)[C@H](CCC(=O)O)NC(=O)C(C)(C)NC(=O)C(C)(C)NC(=O)[C@@H](NC(=O)[C@H](CCCCNC(C)=O)NC(=O)[C@H](C)NC(=O)[C@H](CCCNC(=N)N)NC(=O)[C@@H](NC(=O)[C@H](CCCCN)NC(=O)[C@H](CCC(=O)O)NC(=O)[C@H](CCCNC(=N)N)NC(=O)CNC(=O)[C@H](CCC(=O)O)NC(=O)[C@H](CC(C)C)NC(C)=O)C(C)C)[C@@H](C)CC)C(=O)N[C@@H](CO)C(=O)N[C@H](C(=O)N[C@@](C)(Cc1ccccc1)C(=O)N[C@@H](CO)C(=O)N[C@@H](CCCNC(=N)N)C(=O)N[C@@H](CCCNC(=N)N)C(=O)N[C@@H](C)C(=O)N[C@@H](CCCCNC(C)=O)C(N)=O)[C@@H](C)O)C(=O)O)C(=O)O)C(=O)O [compound 89] (Ac-LEGREKVRAK(Ac)I[Aib][Aib]EGK([Suc-X1])ST[αMeF]SRRAK(Ac)-NH2) |
| 0.79 | 95 | CCCCCCCCCCCCCCCC(=O)N[C@@H](CCC(=O)N[C@@H](CCC(=O)N[C@@H](CCC(=O)N[C@@H](CCC(=O)NCCCOCCOCCOCCCNC(=O)CCC(=O)NCCCOCCOCCOCCCNC(=O)CCC(=O)NCCCC[C@H](NC(=O)CNC(=O)[C@H](CCC(=O)O)NC(=O)C(C)(C)NC(=O)C(C)(C)NC(=O)[C@@H](NC(=O)[C@H](CCCCNC(C)=O)NC(=O)[C@H](C)NC(=O)[C@H](CCCNC(=N)N)NC(=O)[C@@H](NC(=O)[C@H](CCCCN)NC(=O)[C@H](CCC(=O)O)NC(=O)[C@H](CCCNC(=N)N)NC(=O)CNC(=O)[C@H](CCC(=O)O)NC(=O)[C@H](CC(C)C)NC(C)=O)C(C)C)[C@@H](C)CC)C(=O)N[C@@H](CO)C(=O)N[C@H](C(=O)N[C@@H](Cc1ccccc1)C(=O)N[C@@H](CO)C(=O)N[C@@](C)(CCCCN)C(=O)N[C@@H](CCCNC(=N)N)C(=O)N[C@@H](C)C(=O)N[C@@H](CCCCNC(C)=O)C(N)=O)[C@@H](C)O)C(=O)O)C(=O)O)C(=O)O)C(=O)O [compound 10] (Ac-LEGREKVRAK(Ac)I[Aib][Aib]EGK([Suc-X8])STFS[αMeK]RAK(Ac)-NH2) |
| 2.1 | 85 | CCCCCCCCCCCCCCCC(=O)N[C@@H](CCC(=O)N[C@@H](CCC(=O)N[C@@H](CCC(=O)NCCCOCCOCCOCCCNC(=O)CCC(=O)NCCCOCCOCCOCCCNC(=O)CCC(=O)NCCCOCCOCCOCCCNC(=O)CCC(=O)NCCCC[C@H](NC(=O)CNC(=O)[C@H](CCC(=O)O)NC(=O)C(C)(C)NC(=O)C(C)(C)NC(=O)[C@@H](NC(=O)[C@H](CCCCNC(C)=O)NC(=O)[C@H](C)NC(=O)[C@H](CCCNC(=N)N)NC(=O)[C@@H](NC(=O)[C@H](CCCCN)NC(=O)[C@H](CCC(=O)O)NC(=O)[C@H](CCCNC(=N)N)NC(=O)CNC(=O)[C@H](CCC(=O)O)NC(=O)[C@H](CC(C)C)NC(C)=O)C(C)C)[C@@H](C)CC)C(=O)N[C@@H](CO)C(=O)N[C@H](C(=O)N[C@@H](Cc1ccccc1)C(=O)NC(C)(C)C(=O)N[C@@H](CCCCN)C(=O)N[C@@H](CCCNC(=N)N)C(=O)N[C@@H](C)C(=O)N[C@@H](CCCCNC(C)=O)C(N)=O)[C@@H](C)O)C(=O)O)C(=O)O)C(=O)O [compound 15] (Ac-LEGREKVRAK(Ac)I[Aib][Aib]EGK([Suc-X1])STF[Aib]KRAK(Ac)-NH2) |
| 1.86 | 92 | CCCCCCCCCCCCCCCC(=O)N[C@@H](CCC(=O)N[C@@H](CCC(=O)N[C@@H](CCC(=O)NCCOCCOCC(=O)NCCOCCOCC(=O)NCCOCCOCC(=O)NCCOCCOCC(=O)NCCCC[C@H](NC(=O)CNC(=O)[C@H](CCC(=O)O)NC(=O)C(C)(C)NC(=O)C(C)(C)NC(=O)[C@@H](NC(=O)[C@H](CCCCNC(C)=O)NC(=O)[C@H](C)NC(=O)[C@H](CCCNC(=N)N)NC(=O)[C@@H](NC(=O)[C@H](CCCCN)NC(=O)[C@H](CCC(=O)O)NC(=O)[C@H](CCCNC(=N)N)NC(=O)CNC(=O)[C@H](CCC(=O)O)NC(=O)[C@H](CC(C)C)NC(C)=O)C(C)C)[C@@H](C)CC)C(=O)N[C@@H](CO)C(=O)N[C@H](C(=O)N[C@@H](Cc1ccccc1)C(=O)N[C@@H](CO)C(=O)N[C@@](C)(CCCCN)C(=O)N[C@@H](CCCNC(=N)N)C(=O)N[C@@H](C)C(=O)N[C@@H](CCCCNC(C)=O)C(N)=O)[C@@H](C)O)C(=O)O)C(=O)O)C(=O)O [compound 8] (Ac-LEGREKVRAK(Ac)I[Aib][Aib]EGK([AEEA-AEEA-AEEA-AEEA-γGlu-γGlu-γGlu-Palmitoyl])STFS[αMeK]RAK(Ac)-NH2) |
| 0.15 | 91 | CCCCCCCCCCCCCCCCCC(=O)N[C@@H](CCC(=O)N[C@@H](CCC(=O)N[C@@H](CCC(=O)NCCCOCCOCCOCCCNC(=O)CCC(=O)NCCCOCCOCCOCCCNC(=O)CCC(=O)NCCCOCCOCCOCCCNC(=O)CCC(=O)NCCCC[C@H](NC(=O)CNC(=O)[C@H](CCC(=O)O)NC(=O)C(C)(C)NC(=O)C(C)(C)NC(=O)[C@@H](NC(=O)[C@H](CCCNC(N)=O)NC(=O)[C@H](C)NC(=O)[C@H](CCCNC(=N)N)NC(=O)[C@@H](NC(=O)[C@H](CCCCN)NC(=O)[C@H](CCC(=O)O)NC(=O)[C@H](CCCNC(=N)N)NC(=O)CNC(=O)[C@H](CCC(=O)O)NC(=O)[C@H](CC(C)C)NC(C)=O)C(C)C)[C@@H](C)CC)C(=O)N[C@@H](CO)C(=O)N[C@H](C(=O)N[C@@H](Cc1ccccc1)C(=O)N[C@@H](CO)C(=O)N[C@@](C)(CCCCN)C(=O)N[C@@H](CCCNC(=N)N)C(=O)N[C@@H](C)C(=O)N[C@@H](CCCCNC(C)=O)C(N)=O)[C@@H](C)O)C(=O)O)C(=O)O)C(=O)O [compound 56] (Ac-LEGREKVRA[Cit]I[Aib][Aib]EGK([Suc-X3])STFS[αMeK]RAK(Ac)-NH2) |
| 0.3 | 95 | CCCCCCCCCCCCCCCC(=O)N[C@@H](CCC(=O)N[C@@H](CCC(=O)N[C@@H](CCC(=O)NCCCOCCOCCOCCCNC(=O)CCC(=O)NCCCOCCOCCOCCCNC(=O)CCC(=O)NCCCOCCOCCOCCCNC(=O)CCC(=O)NCCCC[C@H](NC(=O)CNC(=O)[C@H](CCC(=O)O)NC(=O)[C@@H](NC(=O)C(C)(C)NC(=O)[C@@H](NC(=O)[C@H](CCCCNC(C)=O)NC(=O)[C@H](C)NC(=O)[C@H](CCCNC(=N)N)NC(=O)[C@@H](NC(=O)[C@H](CCCCN)NC(=O)[C@H](CCC(=O)O)NC(=O)[C@H](CCCNC(=N)N)NC(=O)CNC(=O)[C@H](CCC(=O)O)NC(=O)C(C)(C)NC(C)=O)C(C)C)[C@@H](C)CC)[C@@H](C)CC)C(=O)N[C@@H](CO)C(=O)N[C@H](C(=O)N[C@@H](Cc1ccccc1)C(=O)N[C@@H](CO)C(=O)N[C@@](C)(CCCCN)C(=O)N[C@@H](CCCNC(=N)N)C(=O)N[C@@H](C)C(=O)N[C@@H](CCCCNC(C)=O)C(N)=O)[C@@H](C)O)C(=O)O)C(=O)O)C(=O)O [compound 86] (Ac-[Aib]EGREKVRAK(Ac)I[Aib]IEGK([Suc-X1])STFS[αMeK]RAK(Ac)-NH2) |
